Assay results taken from patent US20230167081A1, “5-AMINO-2-PIPERIDINON-3-YL-1-OXOISOINDOLINE DERIVATIVES FOR DEGRADATION OF IKZF2 DEGRADERS” (President and Fellows of Harvard College, priority 2020, published 2023).
“Also recorded” adds a separate entry of the source. Read-outs that look alike come from different tables or passages of the source.

Legend:
[1] = target: T1, IKZF2 (Homo sapiens, UniProt Q9UKS7); conditions: background statement; cited from earlier work
Target sequence in this assay (Q9UKS7 whole entry): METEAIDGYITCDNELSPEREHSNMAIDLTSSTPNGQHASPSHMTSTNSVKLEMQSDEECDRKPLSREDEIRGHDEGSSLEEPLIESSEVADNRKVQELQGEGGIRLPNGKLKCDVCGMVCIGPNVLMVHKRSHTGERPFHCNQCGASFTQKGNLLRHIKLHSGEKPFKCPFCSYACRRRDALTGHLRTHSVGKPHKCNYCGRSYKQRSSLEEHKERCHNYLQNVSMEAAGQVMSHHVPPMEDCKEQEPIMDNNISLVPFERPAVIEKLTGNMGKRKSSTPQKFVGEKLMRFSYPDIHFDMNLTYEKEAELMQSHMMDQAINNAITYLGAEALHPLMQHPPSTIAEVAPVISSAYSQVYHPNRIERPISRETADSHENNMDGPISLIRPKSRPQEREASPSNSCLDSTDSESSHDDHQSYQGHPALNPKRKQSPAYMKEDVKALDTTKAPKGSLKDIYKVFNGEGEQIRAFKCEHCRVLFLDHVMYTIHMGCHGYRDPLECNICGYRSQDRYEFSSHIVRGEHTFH
Target sequence in this assay (Q96SW2 whole entry, further chain): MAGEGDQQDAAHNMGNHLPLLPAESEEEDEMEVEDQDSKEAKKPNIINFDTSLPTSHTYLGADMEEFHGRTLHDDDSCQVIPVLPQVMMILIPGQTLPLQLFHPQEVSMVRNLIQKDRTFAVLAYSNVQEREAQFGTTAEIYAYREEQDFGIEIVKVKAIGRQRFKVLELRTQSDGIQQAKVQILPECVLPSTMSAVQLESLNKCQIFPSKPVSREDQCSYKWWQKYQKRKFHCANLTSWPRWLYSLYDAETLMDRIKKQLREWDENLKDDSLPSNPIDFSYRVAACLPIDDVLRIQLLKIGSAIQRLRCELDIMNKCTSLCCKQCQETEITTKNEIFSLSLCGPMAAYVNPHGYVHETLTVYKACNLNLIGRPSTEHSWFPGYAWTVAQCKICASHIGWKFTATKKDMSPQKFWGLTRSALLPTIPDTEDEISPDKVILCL

[2] = tested on: MOLM13 cells; experiment: MTT cell viability assay in MOLM13 cells; format: cell-based, human
Procedure: The effect of DEG-7 and DEG-35 were evaluated on cell viability in MOLM13 cells.

[3] = target: T1, IKZF2; experiment: Western blot, IKZF2 degradation in MOLM13 cells; format: cell-based; design: endogenous in cells; host or cells: MOLM13
Procedure: (§1) To determine the selectivity of DEG-7 and DEG-35, blotting was done for other known IMiD neo-substrates (FIG. 1A). DEG-35 degraded casein kinase 1α (CK1α), a known substrate of lenalidomide, as well as the translation termination factor GSPT1, a substrate of the IMiD CC-885, at 25 μM concentrations. To investigate whether DEG-35 could degrade IKZF2 at lower concentrations, MOLM13 cells were treated with a concentration gradient. At the lowest concentration tested (5 nM), IKZF2 and CK1a degraded, while GSPT1 levels were unperturbed.
Target sequence in this assay (Q9UKS7 whole entry): as the sequence (Q9UKS7 whole entry) above
Target sequence in this assay (Q96SW2 whole entry, further chain): as the sequence (Q96SW2 whole entry, further chain) above
Target sequence in this assay (Q16531 whole entry partner): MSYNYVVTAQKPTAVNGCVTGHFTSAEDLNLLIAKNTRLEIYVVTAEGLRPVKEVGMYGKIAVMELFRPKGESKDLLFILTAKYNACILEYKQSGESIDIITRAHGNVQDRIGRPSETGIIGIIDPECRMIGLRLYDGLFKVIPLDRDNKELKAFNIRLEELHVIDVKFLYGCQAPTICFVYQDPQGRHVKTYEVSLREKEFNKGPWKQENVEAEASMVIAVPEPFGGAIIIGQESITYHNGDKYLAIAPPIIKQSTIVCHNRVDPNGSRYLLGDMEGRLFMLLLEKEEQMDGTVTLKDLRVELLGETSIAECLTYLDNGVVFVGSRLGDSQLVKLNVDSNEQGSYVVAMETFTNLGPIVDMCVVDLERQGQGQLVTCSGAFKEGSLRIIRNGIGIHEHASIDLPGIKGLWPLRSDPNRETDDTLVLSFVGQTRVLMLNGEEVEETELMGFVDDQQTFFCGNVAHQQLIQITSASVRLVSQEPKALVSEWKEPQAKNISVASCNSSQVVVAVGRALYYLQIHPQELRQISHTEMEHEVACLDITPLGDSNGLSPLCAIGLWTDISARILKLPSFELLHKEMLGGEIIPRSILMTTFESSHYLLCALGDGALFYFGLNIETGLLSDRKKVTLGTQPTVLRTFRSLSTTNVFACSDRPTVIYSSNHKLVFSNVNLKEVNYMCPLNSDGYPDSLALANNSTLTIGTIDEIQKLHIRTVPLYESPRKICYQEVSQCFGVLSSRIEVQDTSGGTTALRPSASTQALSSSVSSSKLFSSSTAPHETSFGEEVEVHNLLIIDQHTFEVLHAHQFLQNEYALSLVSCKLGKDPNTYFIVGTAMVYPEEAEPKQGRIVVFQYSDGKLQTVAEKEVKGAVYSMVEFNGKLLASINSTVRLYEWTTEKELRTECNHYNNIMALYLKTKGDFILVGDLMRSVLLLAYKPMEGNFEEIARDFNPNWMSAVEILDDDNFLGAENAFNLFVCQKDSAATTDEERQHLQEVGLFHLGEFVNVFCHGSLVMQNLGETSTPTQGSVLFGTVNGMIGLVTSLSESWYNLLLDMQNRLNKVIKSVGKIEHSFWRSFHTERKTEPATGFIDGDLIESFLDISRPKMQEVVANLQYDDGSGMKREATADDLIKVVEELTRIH

[4] = target: GSPT1 (Homo sapiens, UniProt P15170+Q96SW2); experiment: Western blot, GSPT1 levels in MOLM13 cells; format: cell-based; design: endogenous in cells; host or cells: MOLM13
GSPT1, sequence (P15170 whole entry): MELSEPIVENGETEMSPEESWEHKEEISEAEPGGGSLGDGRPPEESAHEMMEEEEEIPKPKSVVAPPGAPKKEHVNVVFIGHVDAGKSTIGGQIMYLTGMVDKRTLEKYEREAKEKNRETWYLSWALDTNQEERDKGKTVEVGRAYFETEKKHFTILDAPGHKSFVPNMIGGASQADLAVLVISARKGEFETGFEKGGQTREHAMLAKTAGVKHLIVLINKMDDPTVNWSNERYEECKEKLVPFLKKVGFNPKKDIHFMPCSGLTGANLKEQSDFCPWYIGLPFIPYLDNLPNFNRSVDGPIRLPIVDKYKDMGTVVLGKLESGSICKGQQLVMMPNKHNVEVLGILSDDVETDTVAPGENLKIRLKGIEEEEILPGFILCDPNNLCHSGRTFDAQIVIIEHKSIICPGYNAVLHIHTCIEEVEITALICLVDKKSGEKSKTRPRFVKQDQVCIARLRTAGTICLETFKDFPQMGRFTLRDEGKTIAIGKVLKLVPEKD
GSPT1, sequence (Q96SW2 whole entry): as the sequence (Q96SW2 whole entry, further chain) above
GSPT1, sequence (Q16531 whole entry partner): as the sequence (Q16531 whole entry partner) above
Procedure: as §1

[5] = target: T2, IKZF1 (Homo sapiens, UniProt Q13422); experiment: Western blot, IKZF1 levels in MOLM13 cells; format: cell-based
T2 construct: endogenous in cells; host or cells: MOLM13
T2 sequence (Q96SW2 whole entry partner): as the sequence (Q96SW2 whole entry, further chain) above
T2 sequence (Q16531 whole entry partner): as the sequence (Q16531 whole entry partner) above
T2 sequence (Q13422 whole entry): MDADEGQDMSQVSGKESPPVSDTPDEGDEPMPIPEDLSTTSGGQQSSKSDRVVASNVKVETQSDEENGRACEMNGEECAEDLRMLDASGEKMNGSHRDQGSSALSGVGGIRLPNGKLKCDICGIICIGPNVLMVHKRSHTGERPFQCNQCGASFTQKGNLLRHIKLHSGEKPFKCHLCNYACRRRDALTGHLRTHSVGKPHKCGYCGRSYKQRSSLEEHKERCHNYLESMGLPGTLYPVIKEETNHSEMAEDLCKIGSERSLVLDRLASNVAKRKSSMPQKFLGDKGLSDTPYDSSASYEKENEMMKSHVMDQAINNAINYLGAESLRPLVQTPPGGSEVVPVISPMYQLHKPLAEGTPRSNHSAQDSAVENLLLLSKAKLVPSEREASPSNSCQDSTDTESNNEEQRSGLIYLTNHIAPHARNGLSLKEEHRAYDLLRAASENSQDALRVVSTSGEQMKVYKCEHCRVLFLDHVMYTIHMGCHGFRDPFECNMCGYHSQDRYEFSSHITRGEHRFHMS
Text: DEG-37 is also a suitable lead compound for IKZF2 targeted degradation (FIG. 4).

[6] = tested on: NOMO1; experiment: Cell viability, antiproliferation, apoptosis, differentiation in NOMO1 cells; format: cell-based
[7] = tested on: over 800 cancer cell lines; experiment: PRISM screen against over 800 cancer cell lines; format: cell-based; conditions: MOLM13 cell line
Text: DEG-7 and DEG-35 were submitted to the Broad Institute's PRISM (Profiling Relative Inhibition Simultaneously in Mixtures) screen to be evaluated against over 800 cancer cell lines. The initial screen identified cancer cell lines that were responsive to DEG-7 and DEG-35 treatment. […] Several diffuse large B-cell lymphoma (DLBCL), acute myeloid leukemia (AML), and T-cell acute lymphoblastic leukemia (T-ALL) cell lines responded to DEG-35 in a dose-dependent manner. Of the top ten cell lines that responded to DEG-35 treatment, three were DLBCL cell lines, one was an AML cell line (MOLM13), and one was a T-ALL cell line.

[8] = tested on: KASUMI; experiment: Cell viability, antiproliferation, apoptosis, differentiation in KASUMI cells; format: cell-based
[9] = tested on: MOLM13 cells; experiment: Apoptosis markers in MOLM13 cells; format: cell-based, human
[10] = tested on: MOLM13 cells; experiment: Differentiation in MOLM13 cells; format: cell-based, human

SMILES: Nc1cccc2c1CN(C1CCC(=O)NC1=O)C2=O (stereo not drawn) [lenalidomide]
- IKZF2 degradation [1]: not degraders of IKZF2

SMILES: O=C1CCC(N2Cc3cc(NCc4ccc5oc6ccccc6c5c4)ccc3C2=O)C(=O)N1 (stereo not drawn) [DEG-37, 3-(5-((dibenzo[b,d]furan-2-ylmethyl)amino)-1-oxoisoindolin-2-yl)piperidine-2,6-dione]
- antiproliferative activity (in words) ([2]; MOLM13 / AML cells): milder antiproliferative effects; also recorded: possesses antiproliferative effects
- IKZF2 degradation ([3]; 25 μM): selectively degrade IKZF2; also recorded: degrades IKZF2
- effect on GSPT1 levels [4]: minimally effect
- effect on IKZF1 levels [5]: minimally effect

SMILES: COc1ccc2cc(CNc3ccc4c(c3)CN(C3CCC(=O)NC3=O)C4=O)ccc2c1 (stereo not drawn) [DEG-7, 3-(5-(((6-methoxynaphthalen-2-yl)methyl)amino)-1-oxoisoindolin-2-yl)piperidine-2,6-dione]
- effect on cell viability, antiproliferation, apoptosis, or differentiation [6]: no observed effect
- sensitivity of MOLM13 in PRISM screen [7]: sensitive
- IC50 ([2]; MOLM13 cells): 4.5 µM
- effect on cell viability, antiproliferation, apoptosis, or differentiation [8]: no observed effect
- induction of apoptosis markers [9]: induced apoptosis markers
- induction of differentiation [10]: induced differentiation; also recorded: more efficient at inducing differentiation than DEG-35
- IKZF2 degradation ([3]; analog screening, concentration not given): robust IKZF2 degradation; also recorded: potent degraders of IKZF2
